These results are taken from US20170057917A1, “Polymorphs of Lomitapide and its Salts” (Hetero Research Foundation, priority 2014, published 2017).

The data set is described as follows: Hygroscopicity of the amorphous form. To be noted: solid amorphous form; normally amorphous Forms are hygroscopic. Type of data set: physicochemical.

Structures are written as SMILES.

`CS(=O)(=O)O.O=C(NC1CCN(CCCCC2(C(=O)NCC(F)(F)F)c3ccccc3-c3ccccc32)CC1)c1ccccc1-c1ccc(C(F)(F)F)cc1` [Amorphous Lomitapide mesylate]: the hygroscopicity entry is “non-hygroscopic”.
